In PMC4777262 (Pharmacology Research & Perspectives, 2016):

Experiments:
IMPDH1 = IMPDH1 (Homo sapiens, UniProt P20839); assay: spectrophotometric NADH production at […] nm; assay type: biochemical
IMPDH2 = IMPDH2 (Homo sapiens, UniProt P12268); assay: spectrophotometric NADH production at […] nm; assay type: biochemical
Chain of IMPDH2 (P12268 2-514): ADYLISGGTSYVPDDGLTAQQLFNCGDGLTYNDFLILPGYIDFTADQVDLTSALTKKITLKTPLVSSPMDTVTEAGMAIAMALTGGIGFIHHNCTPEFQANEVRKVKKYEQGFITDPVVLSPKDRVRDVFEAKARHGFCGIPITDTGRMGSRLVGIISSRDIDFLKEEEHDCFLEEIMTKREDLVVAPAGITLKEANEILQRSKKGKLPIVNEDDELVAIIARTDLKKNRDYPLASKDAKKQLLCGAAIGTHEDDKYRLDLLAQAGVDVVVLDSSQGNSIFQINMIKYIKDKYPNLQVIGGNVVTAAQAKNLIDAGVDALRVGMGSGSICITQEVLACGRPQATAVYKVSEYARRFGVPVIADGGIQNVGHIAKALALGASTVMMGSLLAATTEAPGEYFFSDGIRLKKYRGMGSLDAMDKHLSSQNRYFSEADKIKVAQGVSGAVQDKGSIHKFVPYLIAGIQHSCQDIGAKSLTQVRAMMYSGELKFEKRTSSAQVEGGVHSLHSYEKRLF

Chain of IMPDH1 (P20839 2-514): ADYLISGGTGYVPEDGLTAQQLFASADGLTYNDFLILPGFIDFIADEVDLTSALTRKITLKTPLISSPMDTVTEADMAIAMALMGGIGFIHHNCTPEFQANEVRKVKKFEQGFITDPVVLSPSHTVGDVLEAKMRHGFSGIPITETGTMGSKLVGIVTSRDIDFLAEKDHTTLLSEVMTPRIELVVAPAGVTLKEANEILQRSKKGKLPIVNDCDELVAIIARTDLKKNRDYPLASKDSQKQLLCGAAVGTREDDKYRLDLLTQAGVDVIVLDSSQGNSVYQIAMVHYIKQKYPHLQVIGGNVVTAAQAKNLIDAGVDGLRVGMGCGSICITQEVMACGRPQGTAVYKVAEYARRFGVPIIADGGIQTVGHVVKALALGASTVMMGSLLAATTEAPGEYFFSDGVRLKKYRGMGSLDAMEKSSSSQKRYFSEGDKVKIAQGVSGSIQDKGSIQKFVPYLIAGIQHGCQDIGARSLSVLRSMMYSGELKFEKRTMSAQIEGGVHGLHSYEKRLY

## NC(=O)c1ncn([C@@H]2O[C@H](COP(=O)(O)O)[C@@H](O)[C@H]2O)c1O [FF‐10501RMP]
IMPDH1
  IC50: 29 ± 10.3 nM
IMPDH2
  IC50: 31.8 ± 5.6 nM

## COc1c(C)c2c(c(O)c1C/C=C(\C)CCC(=O)O)C(=O)OC2 [Mycophenolic acid, reference compound]
IMPDH1
  IC50: 26.4 ± 1.5 nM
